Measured values: publication PMC8761492 (Life Science Alliance, 2022)
Starred links: 1 amine or outer side, 2 acyl side, 3 side chain; linkers in the order of their positions; H or OH if unused. Positions of bridges follow the written chain, without caps; N, C: chain ends. Non-standard residues stand in square brackets, D forms with d. Residues, ends and D or L forms follow the SMILES beside them. *: point of attachment. X1 = CC[C@H](C)[C@@H](N[*:1])[C@@H](O)CC(=O)O[C@H](C(=O)[C@H](C)C(=O)[*:2])C(C)C; NMeY = CN[C@@H](Cc1ccc(O)cc1)C(=O)O; dNMeL = CN[C@H](CC(C)C)C(=O)O; Pyruvoyl = CC(=O)C(=O)*

How the values were obtained:
COVID-19 [1] = experiment: APLICOV-PC: mortality, ventilation, ICU admission and oxygen therapy; format: in vivo, human
Protocol: Secondary outcomes included change from baseline of viral load, as evaluated by quantitative PCR via central laboratory on nasopharyngeal exudate or sampled from the lower respiratory tract within 48 h before first administration of plitidepsin and on days 4, 7, 15, and 31, and the percentage of patients requiring oxygen therapy, noninvasive mechanical ventilation, invasive mechanical ventilation and/or intensive care unit admission, and the percentage of patients with a fatal outcome on days 7, 15, and 31.
Analysis for preliminary evidence of efficacy was performed on all patients who had efficacy assessments at baseline and at least one subsequent assessment during treatment.
In regards with subgroup analyses, safety and efficacy outcomes also were assessed by age-group (<65 versus ≥65 yr) and efficacy outcomes were assessed by disease severity at baseline. Safety outcomes were also assessed before and after the implementation of the protocol amendment.

COVID-19 [2] = experiment: APLICOV-PC: six-point ordinal scale (post hoc); format: in vivo, human
Protocol: Although not specified in the protocol (so not captured in the CRF), post-hoc analysis was performed to categorize the status of each patient at baseline, on Days 7, 15, 31, and at time of discharge using the following 6-point ordinal scale (Wang et al 2020):
Hospital admission, not requiring supplemental oxygen
Hospital admission, requiring supplemental oxygen
Hospital admission, requiring high-flow nasal cannula or noninvasive mechanical ventilation
Hospital admission, requiring extracorporeal membrane oxygenation or invasive mechanical ventilation
The number and percentage of patients with at least 1-point and at least 2-point improvements from baseline was calculated for Days 7, 15, 31 and date of discharge.

[3] = day 1 to Day 31, Moderate (N=23)

With `CC[C@H](C)[C@H]1NC(=O)[C@@H](NC(=O)[C@@H](CC(C)C)N(C)C(=O)[C@@H]2CCCN2C(=O)C(C)=O)[C@@H](C)OC(=O)[C@H](Cc2ccc(OC)cc2)N(C)C(=O)[C@@H]2CCCN2C(=O)[C@H](CC(C)C)NC(=O)[C@@H](C)C(=O)[C@H](C(C)C)OC(=O)C[C@@H]1O` [Plitidepsin] (Pyruvoyl-P[dNMeL]T[X1]LP[NMeY](Me); ester 3-C) the “Patients requiring oxygen therapy (high flow) at” value (COVID-19 [1]; day 1 to Day 15, Severe (N=15)) was 40%, the “Patients requiring oxygen therapy (low flow) at” value (COVID-19 [1]; day 1 to Day 15, Severe (N=15)) was 100% and the “Patients requiring oxygen therapy at” value (COVID-19 [1]; day 1 to Day 15, Severe (N=15)) was 100%. For the same compound, the “Patients requiring oxygen therapy (low flow) at” value (COVID-19 [1]; day 1 to Day 31, Mild (N=6)) was 33.3%, the “Patients requiring oxygen therapy at” value (COVID-19 [1]; day 1 to Day 31, Mild (N=6)) was 33.3% and the “Patients requiring non-invasive mechanical ventilation at” value (COVID-19 [1]; [3]) was 4.3%. For the same compound, the “Patients requiring oxygen therapy (high flow) at” value (COVID-19 [1]; [3]) was 4.3%, the “Patients requiring oxygen therapy (low flow) at” value (COVID-19 [1]; [3]) was 78.3% and the “Patients requiring oxygen therapy at” value (COVID-19 [1]; [3]) was 78.3%. For the same compound, the Deaths at (COVID-19 [1]; day 1 to Day 31, Severe (N=15)) was 13.3%, the “Patients requiring ICU admission at” value (COVID-19 [1]; day 1 to Day 31, Severe (N=15)) was 40% and the “Patients requiring invasive mechanical ventilation and/or ICU admission at” value (COVID-19 [1]; day 1 to Day 31, Severe (N=15)) was 40%. The “Patients requiring invasive mechanical ventilation at” value (COVID-19 [1]; day 1 to Day 31, Severe (N=15)) was 20%, the “Patients requiring non-invasive mechanical ventilation at” value (COVID-19 [1]; day 1 to Day 31, Severe (N=15)) was 46.7% and the “Patients requiring oxygen therapy (high flow) at” value (COVID-19 [1]; day 1 to Day 31, Severe (N=15)) was 40%. The “Patients requiring oxygen therapy (low flow) at” value (COVID-19 [1]; day 1 to Day 31, Severe (N=15)) was 100%, the “Patients requiring oxygen therapy at” value (COVID-19 [1]; day 1 to Day 31, Severe (N=15)) was 100% and the “patients requiring nonmechanical invasive ventilation” value (COVID-19 [1]; moderate disease, one patient) was 4.3%. The “patients requiring intensive care support” value (COVID-19 [1]; severe disease at baseline, 6 of 15) was 40%, the “patients requiring nonmechanical invasive ventilation” value (COVID-19 [1]; severe disease, seven patients) was 46.7% and the “patients requiring intensive care support” value (COVID-19 [1]; six of 44 patients) was 13.6%. For the same compound, the “2 Hospital admission, not requiring supplemental oxygen” value (COVID-19 [2]; Day 4, 1.5 mg (N=14)) was 28.6%, the “3 Hospital admission, requiring supplemental oxygen” value (“3 Hospital admission” below) (COVID-19 [2]; Day 4, 1.5 mg (N=14)) was 57.1% and the “4 Hospital admission, requiring high-flow nasal cannula or non-invasive mechanical ventilation” value (COVID-19 [2]; Day 4, 1.5 mg (N=14)) was 14.3%. For the same compound, the “2 Hospital admission, not requiring supplemental oxygen” value (COVID-19 [2]; Day 4, 2 mg (N=15)) was 40%, the “3 Hospital admission” value (COVID-19 [2]; Day 4, 2 mg (N=15)) was 60% and the “2 Hospital admission, not requiring supplemental oxygen” value (COVID-19 [2]; Day 4, 2.5 mg (N=15)) was 33.3%. The “3 Hospital admission” value (COVID-19 [2]; Day 4, 2.5 mg (N=15)) was 66.7%, the “2 Hospital admission, not requiring supplemental oxygen” value (COVID-19 [2]; Day 4, Total (N=44)) was 34.1% and the “3 Hospital admission” value (COVID-19 [2]; Day 4, Total (N=44)) was 61.4%. For the same compound, the “4 Hospital admission, requiring high-flow nasal cannula or non-invasive mechanical ventilation” value (COVID-19 [2]; Day 4, Total (N=44)) was 4.5%, the “1 Discharged (Alive)” value (COVID-19 [2]; Day 7, 1.5 mg (N=14)) was 21.4% and the “2 Hospital admission, not requiring supplemental oxygen” value (COVID-19 [2]; Day 7, 1.5 mg (N=14)) was 21.4%. The “3 Hospital admission” value (COVID-19 [2]; Day 7, 1.5 mg (N=14)) was 35.7%, the “4 Hospital admission, requiring high-flow nasal cannula or non-invasive mechanical ventilation” value (COVID-19 [2]; Day 7, 1.5 mg (N=14)) was 21.4% and the “1 Discharged (Alive)” value (COVID-19 [2]; Day 7, 2 mg (N=15)) was 13.3%. The “2 Hospital admission, not requiring supplemental oxygen” value (COVID-19 [2]; Day 7, 2 mg (N=15)) was 20%, the “3 Hospital admission” value (COVID-19 [2]; Day 7, 2 mg (N=15)) was 66.7% and the “1 Discharged (Alive)” value (COVID-19 [2]; Day 7, 2.5 mg (N=15)) was 33.3%. For the same compound, the “2 Hospital admission, not requiring supplemental oxygen” value (COVID-19 [2]; Day 7, 2.5 mg (N=15)) was 20%, the “3 Hospital admission” value (COVID-19 [2]; Day 7, 2.5 mg (N=15)) was 26.7% and the “4 Hospital admission, requiring high-flow nasal cannula or non-invasive mechanical ventilation” value (COVID-19 [2]; Day 7, 2.5 mg (N=15)) was 20%. The “1 Discharged (Alive)” value (COVID-19 [2]; Day 7, Total (N=44)) was 22.7%, the “2 Hospital admission, not requiring supplemental oxygen” value (COVID-19 [2]; Day 7, Total (N=44)) was 20.5% and the “3 Hospital admission” value (COVID-19 [2]; Day 7, Total (N=44)) was 43.2%. For the same compound, the “4 Hospital admission, requiring high-flow nasal cannula or non-invasive mechanical ventilation” value (COVID-19 [2]; Day 7, Total (N=44)) was 13.6%, the “1 Discharged (Alive)” value (COVID-19 [2]; Day 15, 1.5 mg (N=14)) was 78.6% and the “3 Hospital admission” value (COVID-19 [2]; Day 15, 1.5 mg (N=14)) was 7.1%. For the same compound, the “4 Hospital admission, requiring high-flow nasal cannula or non-invasive mechanical ventilation” value (COVID-19 [2]; Day 15, 1.5 mg (N=14)) was 7.1%, the “5 Hospital admission, requiring extracorporeal membrane oxygenation or invasive mechanical ventilation” value (from here on “5 Hospital admission”) (COVID-19 [2]; Day 15, 1.5 mg (N=14)) was 7.1% and the “1 Discharged (Alive)” value (COVID-19 [2]; Day 15, 2 mg (N=15)) was 93.3%. For the same compound, the “5 Hospital admission” value (COVID-19 [2]; Day 15, 2 mg (N=15)) was 6.7%, the “1 Discharged (Alive)” value (COVID-19 [2]; Day 15, 2.5 mg (N=15)) was 73.3% and the “3 Hospital admission” value (COVID-19 [2]; Day 15, 2.5 mg (N=15)) was 6.7%. For the same compound, the “4 Hospital admission, requiring high-flow nasal cannula or non-invasive mechanical ventilation” value (COVID-19 [2]; Day 15, 2.5 mg (N=15)) was 20%, the “1 Discharged (Alive)” value (COVID-19 [2]; Day 15, Total (N=44)) was 81.8% and the “3 Hospital admission” value (COVID-19 [2]; Day 15, Total (N=44)) was 4.5%. The “4 Hospital admission, requiring high-flow nasal cannula or non-invasive mechanical ventilation” value (COVID-19 [2]; Day 15, Total (N=44)) was 9.1%, the “5 Hospital admission” value (COVID-19 [2]; Day 15, Total (N=44)) was 4.5% and the “1 Discharged (Alive)” value (COVID-19 [2]; Day 31, 1.5 mg (N=14)) was 85.7%. For the same compound, the “2 Hospital admission, not requiring supplemental oxygen” value (COVID-19 [2]; Day 31, 1.5 mg (N=14)) was 7.1%, the “6 Death” value (COVID-19 [2]; Day 31, 1.5 mg (N=14)) was 7.1% and the “1 Discharged (Alive)” value (COVID-19 [2]; Day 31, 2 mg (N=15)) was 93.3%. For the same compound, the “4 Hospital admission, requiring high-flow nasal cannula or non-invasive mechanical ventilation” value (COVID-19 [2]; Day 31, 2 mg (N=15)) was 6.7%, the “1 Discharged (Alive)” value (COVID-19 [2]; Day 31, 2.5 mg (N=15)) was 80% and the “2 Hospital admission, not requiring supplemental oxygen” value (COVID-19 [2]; Day 31, 2.5 mg (N=15)) was 6.7%. For the same compound, the “5 Hospital admission” value (COVID-19 [2]; Day 31, 2.5 mg (N=15)) was 6.7%, the “6 Death” value (COVID-19 [2]; Day 31, 2.5 mg (N=15)) was 6.7% and the “1 Discharged (Alive)” value (COVID-19 [2]; Day 31, Total (N=44)) was 86.4%. The “2 Hospital admission, not requiring supplemental oxygen” value (COVID-19 [2]; Day 31, Total (N=44)) was 4.5%, the “4 Hospital admission, requiring high-flow nasal cannula or non-invasive mechanical ventilation” value (COVID-19 [2]; Day 31, Total (N=44)) was 2.3% and the “5 Hospital admission” value (COVID-19 [2]; Day 31, Total (N=44)) was 2.3%. The “6 Death” value (COVID-19 [2]; Day 31, Total (N=44)) was 4.5%.
